Biological target: Stromal cell-derived factor 1 (Homo sapiens, UniProt P48061)
Test: Binding affinity to His6-SUMO fusion tagged wild type human [U-15N]CXCL12 expressed in Escherichia coli by 2D 1H-15N HMQC NMR spectroscopy

Stromal cell-derived factor 1, sequence (P48061 whole entry, the tested form may be a part): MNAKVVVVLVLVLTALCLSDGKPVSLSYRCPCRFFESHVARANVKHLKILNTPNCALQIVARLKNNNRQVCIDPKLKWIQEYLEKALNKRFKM

| Kd | Structure (SMILES) |
| --- | --- |
| 1100 µM | CCCOc1ccc(C(Nc2ccc(F)cc2)P(=O)(O)O)cc1 (configuration not stated) |
| 4100 µM | O=C(O)CC1c2ccccc2CCN1C(=O)Nc1cccc(F)c1 (configuration not stated) |

From BindingDB's records for doi:10.1021/acs.jmedchem.5b02042 (University of South Florida, 2016)
